From patent US9486435B2, “(Het)aryl-p-quinone derivatives for treatment of mitochondrial diseases” (Edison Pharmaceuticals, Inc., priority 2008, dated 2016)
pEC50: −log10 of the molar value.

Columns and labels:
Format in all cases: cell-based
[1] = tested on: human dermal fibroblasts from Huntington's patients; test: Rescue of BSO-stressed fibroblasts from Huntington's patients; settings: Fibroblast, Huntington's fibroblasts GM 04281, BSO stress, read-out: protection against Huntington's, EC50
Method: (§1) An initial screen was performed to identify compounds effective for the amelioration of redox disorders. Test samples, 4 reference compounds (Idebenone, decylubiquinone, Trolox and α-tocopherol acetate), and solvent controls were tested for their ability to rescue FRDA fibroblasts stressed by addition of L-buthionine-(S,R)-sulfoximine (BSO), as described in Jauslin et al., Hum. Mol. Genet. 11(24):3055 (2002), Jauslin et al., FASEB J. 17:1972-4 (2003), and International Patent Application WO 2004/003565. […] This specific BSO-mediated cell death can be prevented by administration of antioxidants or molecules involved in the antioxidant pathway, such as α-tocopherol, selenium, or small molecule glutathione peroxidase mimetics. However, antioxidants differ in their potency, i.e. the concentration at which they are able to rescue BSO-stressed FRDA fibroblasts.
(§2) Test samples were screened according to the following protocol: A culture with FRDA fibroblasts was started from a 1 ml vial with approximately 500,000 cells stored in liquid nitrogen. Cells were propagated in 10 cm cell culture dishes by splitting every third day in a ratio of 1:3 until nine plates were available. Once confluent, fibroblasts were harvested. For 54 micro titer plates (96 well-MTP) a total of 14.3 million cells (passage eight) were re-suspended in 480 ml medium, corresponding to 100 μl medium with 3,000 cells/well. The remaining cells were distributed in 10 cm cell culture plates (500,000 cells/plate) for propagation. The plates were incubated overnight at 37° C. in a atmosphere with 95% humidity and 5% CO2 to allow attachment of the cells to the culture plate.
(§3) MTP medium (243 μl) was added to a well of the microtiter plate. The test compounds were unfrozen, and 7.5 μl of a 5 mM stock solution was dissolved in the well containing 243 μl medium, resulting in a 150 μM master solution. Serial dilutions from the master solution were made. The period between the single dilution steps was kept as short as possible (generally less than 1 second).
(§4) Plates were kept overnight in the cell culture incubator. The next day, 10 μl of a 10 mM BSO solution were added to the wells, resulting in a 1 mM final BSO concentration. Forty-eight hours later, three plates were examined under a phase-contrast microscope to verify that the cells in the 0% control (wells E1-H1) were clearly dead. The medium from all plates was discarded, and the remaining liquid was removed by gently tapping the plate inversed onto a paper towel.
(§5) 100 μl of PBS containing 1.2 μM Calcein AM were then added to each well. The plates were incubated for 50-70 minutes at room temperature. After that time the PBS was discarded, the plate gently tapped on a paper towel and fluorescence (excitation/emission wavelengths of 485 nm and 525 nm, respectively) was read on a Gemini fluorescence reader. Data was imported into Microsoft Excel (EXCEL is a registered trademark of Microsoft Corporation for a spreadsheet program) and used to calculate the EC50 concentration for each compound.
Compounds of the invention were tested using the screen as described in Example A, but substituting FRDA cells with Huntington's cells obtained from the Coriell Cell Repositories (Camden, N.J.; repository number GM 04281). The compounds were tested for their ability to rescue human dermal fibroblasts from Huntington's patients from oxidative stress.

[2] = tested on: Human dermal fibroblasts from Friedreich's Ataxia patients; test: Rescue of BSO-stressed FRDA fibroblasts (Calcein AM viability); settings: FRDA fibroblasts GM04078, BSO stress, read-out: protection against FRDA, EC50
Method: as §1
MEM (a medium enriched in amino acids and vitamins, catalog no. 1-31F24-I) and Medium 199 (M199, catalog no. 1-21F22-I) with Earle's Balanced Salts, without phenol red, were purchased from Bioconcept. Fetal Calf Serum was obtained from PAA Laboratories. Basic fibroblast growth factor and epidermal growth factor were purchased from PeproTech. Penicillin-streptomycin-glutamine mix, L-buthionine (S,R)-sulfoximine, (+)-α-tocopherol acetate, decylubiquinone, and insulin from bovine pancreas were purchased from Sigma. Trolox (6-hydroxy-2,5,7,8-tetramethylchromane-2-carboxylic acid) was obtained from Fluka. Idebenone was obtained from Chemo Iberica. Calcein AM was purchased from Molecular Probes. Cell culture medium was made by combining 125 ml M 199 EBS, 50 ml Fetal Calf Serum, 100 U/ml penicillin, 100 μg/ml streptomycin, 2 mM glutamine, 10 μg/ml insulin, 10 ng/ml EGF, and 10 ng/ml bFGF; MEM EBS was added to make the volume up to 500 ml. A 10 mM BSO solution was prepared by dissolving 444 mg BSO in 200 ml of medium with subsequent filter-sterilization. During the course of the experiments, this solution was stored at +4° C. The cells were obtained from the Coriell Cell Repositories (Camden, N.J.; repository number GM04078) and grown in 10 cm tissue culture plates. Every third day, they were split at a 1:3 ratio.
The test samples were supplied in 1.5 ml glass vials. The compounds were diluted with DMSO, ethanol or PBS to result in a 5 mM stock solution. Once dissolved, they were stored at −20° C. Reference antioxidants (Idebenone, decylubiquinone, α-tocopherol acetate and trolox) were dissolved in DMSO.
as §2, §3
as §4, with “The medium from all plates was discarded, and the remaining liquid was removed by gently tapping the plate inversed onto a paper towel.” left out

[3] = tested on: human dermal fibroblasts from Parkinson's disease patients; test: Rescue of BSO-stressed fibroblasts from Parkinson's disease patients; settings: Fibroblast, PD fibroblasts AG20439, BSO stress, read-out: protection against PD, EC50
Method: as §1, §2, §3, §4, §5
(§6) Compounds of the invention were screened as described in Example A, but substituting FRDA cells with Parkinson's Disease (PD) cells obtained from the Coriell Cell Repositories (Camden, N.J.; repository number AG20439). The compounds were tested for their ability to rescue human dermal fibroblasts from Parkinson's disease patients from oxidative stress.

[4] = tested on: human dermal fibroblasts from LHON patients; test: Rescue of BSO-stressed fibroblasts from LHON patients; settings: Fibroblast, LHON fibroblasts GM03858, BSO stress, read-out: protection against LHON, EC50
Method: as §1, §2, §3, §4, §5
as §6, with “Leber's Hereditary Optic Neuropathy (LHON)” for “Parkinson's Disease (PD)”, “GM03858).” for “AG20439).”, “LHON” for “Parkinson's disease”

SMILES | pEC50 [1] | pEC50 [2] | pEC50 [3] | pEC50 [4]
CC1=C(CCC(C)(C)O)C(=O)C(c2ccc(C(F)(F)F)cc2)=C(C)C1=O [Example 1, 2-(3-Hydroxy-3-methylbutyl)-3,5-dimethyl-6-(4-(trifluoromethyl)phenyl)cyclohexa-2,5-diene-1,4-dione] | > 6.70 | > 6.70 | > 6.70 | > 6.70
CC1=C(C)C(=O)C(c2cccc(F)c2)=C(CCC(C)(C)O)C1=O [Example 20, 2-(3-Fluorophenyl)-3-(3-hydroxy-3-methylbutyl)-5,6-dimethylcyclohexa-2,5-diene-1,4-dione] | > 6.70 | > 6.70 | > 6.70 | > 6.70
CC1=C(C)C(=O)C(c2ccc(F)cc2)=C(CCC(C)(C)O)C1=O [Example 9, 2-(4-Fluorophenyl)-3-(3-hydroxy-3-methylbutyl)-5,6-dimethylcyclohexa-2,5-diene-1,4-dione] | > 6.70 | > 6.70 | – | > 6.70
COc1ccc(C2=C(CCC(C)(C)O)C(=O)C(C)=C(C)C2=O)cc1 [Example 12, 2-(3-Hydroxy-3-methylbutyl)-3-(4-methoxyphenyl)-5,6-dimethylcyclohexa-2,5-diene-1,4-dione] | > 6.70 | – | – | > 6.70
CC1=C(C)C(=O)C(CCC(C)(C)O)=C(CCc2ccccc2)C1=O [Example 25, 2-(3-Hydroxy-3-methylbutyl)-5,6-dimethyl-3-phenethylcyclohexa-2,5-diene-1,4-dione] | > 6.70 | – | > 6.70 | > 6.70
CC1=C(C)C(=O)C(c2cc3ccccc3o2)=C(CCC(C)(C)O)C1=O [Example 14, 2-(Benzofuran-2-yl)-3-(3-hydroxy-3-methylbutyl)-5,6-dimethylcyclohexa-2,5-diene-1,4-dione] | – | – | > 6.70 | > 6.70
CC1=C(C)C(=O)C(CCC(C)(C)O)=C(CCCc2ccccc2)C1=O [Example 24, 2-(3-Hydroxy-3-methylbutyl)-5,6-dimethyl-3-(3-phenylpropyl)cyclohexa-2,5-diene-1,4-dione] | > 6.70 | > 6.70 | > 6.70 | > 6.70
CC1=C(C)C(=O)C(c2ccc(C(F)(F)F)cc2)=C(CCC(C)(C)O)C1=O [Example 11, 2-(3-Hydroxy-3-methylbutyl)-5,6-dimethyl-3-(4-(trifluoromethyl)phenyl)cyclohexa-2,5-diene-1,4-dione] | > 6.70 | > 6.70 | > 6.70 | > 6.70
CC1=C(C)C(=O)C(c2ccccc2)=C(CCC(C)(C)O)C1=O [Example 10, 2-(3-Hydroxy-3-methylbutyl)-5,6-dimethyl-3-phenylcyclohexa-2,5-diene-1,4-dione] | – | – | > 6.70 | –
COc1cccc(C2=C(CCC(C)(C)O)C(=O)C(C)=C(C)C2=O)c1 [2-(3-hydroxy-3-methylbutyl)-3-(3-methoxyphenyl)-5,6-dimethyl-cyclohexa-2,5-diene-1,4-dione] | > 6.70 | – | – | –
COc1ccc(C2=C(C)C(=O)C(C)=C(CCC(C)(C)O)C2=O)cc1 [Example 2, 2-(3-Hydroxy-3-methylbutyl)-6-(4-methoxyphenyl)-3,5-dimethylcyclohexa-2,5-diene-1,4-dione] | > 6.70 | > 6.70 | > 6.70 | > 6.70
CC1=C(C)C(=O)C(c2ccc(C(C)(C)C)cc2)=C(CCC(C)(C)O)C1=O [Example 18, 2-(4-tert-Butylphenyl)-3-(3-hydroxy-3-methylbutyl)-5,6-dimethylcyclohexa-2,5-diene-1,4-dione] | > 6.70 | > 6.70 | > 6.70 | > 6.70
CC1=C(C)C(=O)C(c2ccccc2F)=C(CCC(C)(C)O)C1=O [Example 22, 2-(2-Fluorophenyl)-3-(3-hydroxy-3-methylbutyl)-5,6-dimethylcyclohexa-2,5-diene-1,4-dione] | > 6.70 | – | – | –
CC1=C(C)C(=O)C(c2ccc(C#N)cc2)=C(CCC(C)(C)O)C1=O [4-(2-(3-hydroxy-3-methylbutyl)-4,5-dimethyl-3,6-dioxocyclohexa-1,4-dienyl)benzonitrile] | > 6.70 | – | – | –
CC1=C(C)C(=O)C(c2ccc3c(c2)OCO3)=C(CCC(C)(C)O)C1=O [2-(benzo[d][1,3]dioxol-5-yl)-3-(3-hydroxy-3-methylbutyl)-5,6-dimethylcyclohexa-2,5-diene-1,4-dione] | > 6.70 | – | – | –
CC1=C(C)C(=O)C(Cc2ccccc2)=C(CCC(C)(C)O)C1=O [Example 23, 2-Benzyl-3-(3-hydroxy-3-methylbutyl)-5,6-dimethylcyclohexa-2,5-diene-1,4-dione] | > 6.70 | > 6.70 | – | > 6.70
CC1=C(C)C(=O)C(c2ccc(F)c(F)c2)=C(CCC(C)(C)O)C1=O [Example 21, 2-(3,4-Difluorophenyl)-3-(3-hydroxy-3-methylbutyl)-5,6-dimethylcyclohexa-2,5-diene-1,4-dione] | > 6.70 | > 6.70 | – | > 6.70
CC1=C(CCC(C)(C)O)C(=O)C(c2ccc(C#N)cc2)=C(C)C1=O [Example 3, 4-(5-(3-Hydroxy-3-methylbutyl)-2,4-dimethyl-3,6-dioxocyclohexa-1,4-dienyl)benzonitrile] | – | > 6.70 | > 6.70 | > 6.70
CC1=C(C)C(=O)C(C(O)Cc2ccccc2)=C(CCC(C)(C)O)C1=O (stereo not shown) [Example 26, 2-(1-Hydroxy-2-phenylethyl)-3-(3-hydroxy-3-methylbutyl)-5,6-dimethylcyclohexa-2,5-diene-1,4-dione] | > 6.70 | > 6.70 | > 6.70 | –
COc1cc(F)ccc1C1=C(CCC(C)(C)O)C(=O)C(C)=C(C)C1=O [2-(4-fluoro-2-methoxyphenyl)-3-(3-hydroxy-3-methylbutyl)-5,6-dimethylcyclohexa-2,5-diene-1,4-dione] | > 6.70 | – | – | –
